Measured values from PubChem BioAssay (NCI).
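96-well plates; 48 h exposure; 5 concentrations. Endpoints by linear interpolation between flanking doses. Not reached: highest tested concentration assigned. TGI denotes the concentration required for complete inhibition of growth.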

Legend:
Experiment in all cases: NCI tumour cell line growth inhibition, 48 h
RXF 393 renal = system: RXF 393 renal
HCT-116 colon = system: HCT-116 colon
SK-MEL-28 melanoma = system: SK-MEL-28 melanoma
MDA-MB-435 = system: MDA-MB-435
HS 578T breast = system: HS 578T breast
HT29 colon = system: HT29 colon
HCC-2998 colon = system: HCC-2998 colon
A498 renal = system: A498 renal
ACHN renal = system: ACHN renal
HCT-15 colon = system: HCT-15 colon
A549 NSCLC = system: A549 NSCLC
EKVX NSCLC = system: EKVX NSCLC
SF-295 CNS = system: SF-295 CNS
SK-MEL-2 melanoma = system: SK-MEL-2 melanoma
CAKI-1 renal = system: CAKI-1 renal
M14 melanoma = system: M14 melanoma
NCI-H23 lung = system: NCI-H23 lung
SW-620 colon = system: SW-620 colon

Compound	TGI (RXF 393 renal)	TGI (HCT-116 colon)	TGI (SK-MEL-28 melanoma)	TGI (MDA-MB-435)	TGI (HS 578T breast)	TGI (HT29 colon)	TGI (HCC-2998 colon)	TGI (A498 renal)	TGI (ACHN renal)	TGI (HCT-15 colon)	TGI (A549 NSCLC)	TGI (EKVX NSCLC)	TGI (SF-295 CNS)	TGI (SK-MEL-2 melanoma)	TGI (CAKI-1 renal)	TGI (M14 melanoma)	TGI (NCI-H23 lung)	TGI (SW-620 colon)
COc1ccc2c(c1)CCC(CN1CCN(CCOC(c3ccc(F)cc3)c3ccc(F)cc3)CC1)C2O (centres undefined)	26.3 µM	23.8 µM	30 µM	34.6 µM	38.7 µM	18.4 µM	9.33 µM	19.9 µM	19.8 µM	22.3 µM	32.7 µM	25.5 µM	34.5 µM	30.8 µM	32 µM	25.5 µM	28.1 µM	> 100 µM
Cc1nc2c(=O)n(C)c(=O)nc-2n(CCO)c1C	> 100 µM	> 100 µM	> 100 µM	> 100 µM	> 100 µM	> 100 µM	> 100 µM	> 100 µM	> 100 µM	> 100 µM	> 100 µM	> 100 µM	> 100 µM	> 100 µM	> 100 µM	> 100 µM	> 100 µM	> 100 µM
CCOC(=O)c1c(C)noc1/N=N/N(CCO)CCO	50.3 µM	> 100 µM	> 100 µM	> 100 µM	> 100 µM	> 100 µM	78.3 µM	75.3 µM	> 100 µM	> 100 µM	> 100 µM	> 100 µM	> 100 µM		> 100 µM	> 100 µM	> 100 µM	> 100 µM
COc1cccc(CCn2c(N)c(C(=O)O)c3ccc([N+](=O)[O-])cc3c2=O)c1	> 100 µM	> 100 µM	> 100 µM	> 100 µM	> 100 µM	> 100 µM	> 100 µM	> 100 µM	> 100 µM	> 100 µM	> 100 µM	> 100 µM	> 100 µM	68.3 µM	> 100 µM	> 100 µM	64.7 µM	> 100 µM
CN(C)Cc1cc(C(=O)/C=C/c2ccc(Br)cc2)cc(CN(C)C)c1O	17.1 µM	19.9 µM	25.3 µM	37.9 µM	45.1 µM	12.5 µM	27.8 µM	30.4 µM	15 µM	25.3 µM	26.2 µM	36.3 µM	19 µM		6.34 µM	22.1 µM	33 µM	16 µM
OC12CC3c4ccccc4NC3C3Oc4cccc5c4C31CCN(CC1CC1)C2C5 (centres undefined)	27.7 µM	33.5 µM	28.6 µM	32.3 µM	46.3 µM	34.2 µM		32.2 µM	34.5 µM	35.1 µM	38.3 µM	87.7 µM	94.1 µM	35 µM	32.4 µM	33.8 µM	30.6 µM	39.1 µM
CC(C)Oc1c(C2(c3ccccc3O)SCCCS2)c(=O)c1=O	> 100 µM	> 100 µM	> 100 µM	> 100 µM	> 100 µM	> 100 µM		> 100 µM	> 100 µM	> 100 µM	> 100 µM	> 100 µM	> 100 µM	> 100 µM	> 100 µM	> 100 µM	> 100 µM	> 100 µM
CCCC(=O)OCC1(CO)C/C(=C/CC(C(C)C)C(C)C)C(=O)O1 (centres undefined)	> 100 µM	> 100 µM	> 100 µM	> 100 µM	> 100 µM	> 100 µM	> 100 µM	> 100 µM	> 100 µM	> 100 µM	> 100 µM	> 100 µM	> 100 µM	> 100 µM	> 100 µM		> 100 µM	> 100 µM
COC1/C=C\OC2(C)Oc3c(C)c(O)c4c(O)c(c(/C=N\OCCCc5ccccc5)c(O)c4c3C2=O)NC(=O)/C(C)=C\C=C/C(C)C(O)C(C)C(O)C(C)C(OC(C)=O)C1C (centres undefined)	6.92 µM	5.26 µM	4.65 µM	9.28 µM	25.2 µM	11.3 µM	25.6 µM	20.5 µM	7.39 µM	11 µM	12.9 µM	17.7 µM	16.3 µM	5.35 µM	15.2 µM	6.76 µM	10 µM	18 µM
Nc1nc(N)c2ncn(-c3ccc(Cl)c(Cl)c3)c2n1	50.8 µM	40.3 µM	> 100 µM	> 100 µM	42.4 µM	58.1 µM	> 100 µM	32.4 µM	> 100 µM	> 100 µM	> 100 µM	> 100 µM	69.6 µM	28 µM	> 100 µM	> 100 µM	40.4 µM	> 100 µM
COC(=O)C1=C([C@H]2COC(C)(C)O2)[C@H]2C[C@@H]1[C@@H]1OC(C)(C)O[C@@H]12	> 100 µM	> 100 µM	> 100 µM	> 100 µM	> 100 µM	> 100 µM	> 100 µM	> 100 µM	> 100 µM	> 100 µM	> 100 µM	> 100 µM	> 100 µM	> 100 µM		> 100 µM	> 100 µM	> 100 µM
Cc1cc(S(=O)(=O)Nc2nc3ccccc3[nH]2)c(S)cc1Cl	> 100 µM	76.5 µM	73.5 µM	> 100 µM	> 100 µM	> 100 µM	> 100 µM	> 100 µM	> 100 µM	> 100 µM	> 100 µM	99.5 µM	> 100 µM	> 100 µM	> 100 µM	> 100 µM	> 100 µM	> 100 µM
FC(F)(F)c1ccc2c(c1)nc(Cc1ccc(Cl)c(Cl)c1)n2CC1CCCN2CCCCC12 (centres undefined)	> 100 µM	30.6 µM	53.8 µM	> 100 µM	34.4 µM	28.2 µM	22.5 µM	67.6 µM	> 100 µM	> 100 µM	44.2 µM	80.3 µM	51.7 µM	76.3 µM	> 100 µM	25.2 µM		> 100 µM
C[n+]1c2ccccc2c(C(=O)NC(CCCN=C(N)N)C(=O)O)c2ccccc21 (centres undefined)		> 100 µM	> 100 µM	> 100 µM	> 100 µM	> 100 µM	> 100 µM	> 100 µM	> 100 µM	> 100 µM	> 100 µM	> 100 µM	> 100 µM	> 100 µM		> 100 µM	> 100 µM	> 100 µM
C=C1C(=O)CCC1C(=O)O (centres undefined)	> 100 µM	> 100 µM	> 100 µM	> 100 µM	> 100 µM	> 100 µM	> 100 µM	> 100 µM	> 100 µM	> 100 µM	> 100 µM	> 100 µM	> 100 µM	> 100 µM		> 100 µM	> 100 µM	> 100 µM
CC(=O)/C(N=Nc1ccc(-n2c(C)nc3ccc(Br)cc3c2=O)cc1)=C(/C)O		> 100 µM	> 100 µM	> 100 µM	91.2 µM	> 100 µM		> 100 µM	> 100 µM	> 100 µM	> 100 µM	> 100 µM	> 100 µM	> 100 µM	> 100 µM	> 100 µM	> 100 µM	> 100 µM
CC(NC1=NCCO1)c1cccs1 (centres undefined)		38.6 µM	53.9 µM	44.4 µM	> 100 µM	42.6 µM	31.5 µM	> 100 µM	> 100 µM	> 100 µM	> 100 µM	> 100 µM	31 µM			35.7 µM	> 100 µM	> 100 µM
C[N+]1(C)CCOC(O)(c2ccccc2)C1 (centres undefined)	> 100 µM	> 100 µM	> 100 µM	> 100 µM	> 100 µM	> 100 µM		> 100 µM	> 100 µM	> 100 µM	> 100 µM	> 100 µM	> 100 µM	> 100 µM	> 100 µM	> 100 µM	> 100 µM	> 100 µM
c1ccc(CN2CCCN3CCN(CCCN(Cc4ccccc4)CC3)CC2)cc1	> 100 µM	> 100 µM	> 100 µM	> 100 µM	> 100 µM	> 100 µM		> 100 µM	> 100 µM	> 100 µM	> 100 µM	> 100 µM	> 100 µM	49.9 µM	> 100 µM	> 100 µM	> 100 µM	> 100 µM
Cc1ccc(/C=N/Nc2cc(C)c3ccccc3n2)s1	75.5 µM	> 100 µM	> 100 µM	> 100 µM	> 100 µM	18.7 µM	33.8 µM		45.4 µM	25.6 µM	40.6 µM	27 µM	32 µM	> 100 µM	37 µM	42.8 µM	96.3 µM	> 100 µM
COCOc1cc(OC)c(Br)cc1C/C(=N/O)C(=O)OC	> 100 µM	> 100 µM	> 100 µM	> 100 µM	57.3 µM	> 100 µM	> 100 µM		> 100 µM	> 100 µM	> 100 µM	> 100 µM	> 100 µM	> 100 µM	> 100 µM	> 100 µM	> 100 µM	> 100 µM
COc1cc(/C=C/C=C2\CCC/C(=C\C=C\c3ccc(O)c(OC)c3)C2=O)ccc1O	41.7 µM	49 µM	30.2 µM	> 100 µM	> 100 µM	31.1 µM	> 100 µM		39 µM	43.7 µM	26.8 µM	64.7 µM	27 µM	87.5 µM	34.2 µM	> 100 µM	> 100 µM	51.1 µM
CS(=O)(=O)N1CC(CCl)c2ccc(NCCN)cc21 (centres undefined)	> 100 µM	> 100 µM	> 100 µM	> 100 µM	> 100 µM	> 100 µM	> 100 µM	> 100 µM	> 100 µM	> 100 µM	> 100 µM	> 100 µM		> 100 µM	> 100 µM	> 100 µM	> 100 µM	> 100 µM
CN(C(=O)[C@@H](NC(=O)OC(C)(C)C)c1ccccc1)[C@H]1CCCC[C@@H]1N1CCCC1		> 100 µM	> 100 µM	> 100 µM	> 100 µM	> 100 µM		> 100 µM	> 100 µM	> 100 µM	> 100 µM	> 100 µM	> 100 µM	> 100 µM	> 100 µM	> 100 µM	> 100 µM	> 100 µM
COC(=O)CCCC(=O)NC1=C(Nc2ccccc2)C(=O)c2ccccc2C1=O		32.7 µM	30.3 µM	17.4 µM	84.4 µM		29.5 µM	32.5 µM	62.2 µM	41.1 µM	36.8 µM	49.7 µM	33 µM	34.2 µM	44 µM	29.6 µM	29.6 µM	52.4 µM
COC(=O)/C=C\[C@@H]1[C@H](C)N1S(=O)(=O)c1ccc(C)cc1 (some centres undefined)	> 100 µM	> 100 µM	> 100 µM	> 100 µM	> 100 µM	> 100 µM	> 100 µM	> 100 µM	> 100 µM	> 100 µM	> 100 µM		> 100 µM	> 100 µM	> 100 µM	> 100 µM	> 100 µM	> 100 µM
c1cc2[nH]snc2c2cncc12	> 100 µM	> 100 µM	> 100 µM	> 100 µM	> 100 µM	> 100 µM	> 100 µM	> 100 µM	> 100 µM	> 100 µM	> 100 µM	> 100 µM	> 100 µM	> 100 µM	> 100 µM		> 100 µM	> 100 µM
